Source: patent publication EP2138545B1, “USE OF PORPHYRAZINE DERIVATIVE AS SEMICONDUCTOR” (Hiroshima University, priority 2007, dated 2008)
Converted amounts (≈) assume the structure as drawn. Where two headings read alike, the source gives them in different places.

Experiment: Measurement of solubility in chloroform and in dichloromethane (solvent added by 0.1 mL until the whole amount dissolved)
Assay type: physicochemical
Conditions: for solubility: organic solvent or mixture, thermodynamic from solid
Description: Respective compounds indicated by "6" and "7" were subjected to measurements of solubility in chloroform and in dichloromethane. In the measurements, approximately 3mg of a compound was prepared in advance by a precise weighing. Then, a solvent was added by 0.1mL to the compound and thereafter stirred or subjected to ultrasonic agitation. The solubility (mg/mL) was determined from an amount of the solvent used in dissolving a whole amount of the compound.

| solubility in dichloromethane (solvent dichloromethane) [mg/mL] | solubility (solvent chloroform, read-out: solubility in chloroform) [µg/mL] | solubility (solvent dichloromethane, read-out: solubility in dichloromethane) [µg/mL] | SMILES | solubility in chloroform (solvent chloroform) [mg/mL] |
| --- | --- | --- | --- | --- |
| – | – | – | CCCCCCc1cc2c(s1)-c1nc-2nc2[nH]c(nc3nc(nc4[nH]c(n1)c1cc(CCCCCC)sc41)-c1cc(CCCCCC)sc1-3)c1cc(CCCCCC)sc21 [compound 6, Tetra(hexylthieno)porphyrazine] | 29 (≈ 33100 µM) |
| 10 | – | – | CCCCCCc1cc2c(s1)C1=NC2=Nc2c3sc(CCCCCC)cc3c3[n]2[Cu][n]2c(c4cc(CCCCCC)sc4c2=NC2=NC(=N3)c3sc(CCCCCC)cc32)=N1 [compound 7, Copper (II) complex] | 11 |
| – | < 20 | < 20 | c1cc2c(s1)-c1nc-2nc2[nH]c(nc3nc(nc4[nH]c(n1)c1ccsc41)-c1ccsc1-3)c1ccsc21 [unsubstituted phthalocyanine derivative, reference compound] | – |
